Assays:
Assay in all cases: greenhouse pre-emergence herbicidal test
Type in all cases: in vivo
Conditions in all cases: 250 g/ha, scale 0 to 100
[1] = tested on: Amaranthus retroflexus
Excerpt: (§1) The culture containers used were plastic flowerpots containing loamy sand with approximately 3.0% of humus as the substrate. The seeds of the test plants were sown separately for each species.
(§2) For the pre-emergence treatment, the active ingredients, which had been suspended or emulsified in water, were applied directly after sowing by means of finely distributing nozzles. The containers were irrigated gently to promote germination and growth and subsequently covered with transparent plastic hoods until the plants had rooted. This cover caused uniform germination of the test plants, unless this had been impaired by the active ingredients.
(§3) Depending on the species, the plants were kept at 10-25° C. or 20-35° C., respectively.
(§4) The test period extended over 2 to 4 weeks. During this time, the plants were tended, and their response to the individual treatments was evaluated.
(§5) Evaluation was carried out using a scale from 0 to 100. 100 means no emergence of the plants, or complete destruction of at least the aerial moieties, and 0 means no damage, or normal course of growth. A moderate herbicidal activity is given at values of at least 60, a good herbicidal activity is given at values of at least 70, and a very good herbicidal activity is given at values of at least 85.

[2] = tested on: Echinocloa crus-galli
Excerpt: as §1, §2, §3, §4, §5

[3] = tested on: Setaria faberi
Excerpt: The culture containers used were plastic flowerpots containing loamy sand with approximately 3.0% of humus as the substrate. The seeds of the test plants were sown separately for each species. For the pre-emergence treatment, the active ingredients, which had been suspended or emulsified in water, were applied directly after sowing by means of finely distributing nozzles. The containers were irrigated gently to promote germination and growth and subsequently covered with transparent plastic hoods until the plants had rooted. This cover caused uniform germination of the test plants, unless this had been impaired by the active ingredients. […] The test period extended over 2 to 4 weeks. During this time, the plants were tended, and their response to the individual treatments was evaluated. Evaluation was carried out using a scale from 0 to 100. 100 means no emergence of the plants, or complete destruction of at least the aerial moieties, and 0 means no damage, or normal course of growth.

[4] = tested on: Alopercurus myosuroides
Excerpt: as §1, §2, §3, §4, §5

CC(C)(F)c1nc(N)nc(Nc2c(F)cccc2OCc2ccc(F)cc2)n1 [Example 6]
herbicidal activity [1]: 100%
herbicidal activity [2]: 100%
herbicidal activity [3]: 100%

CC(Oc1cccc(F)c1Nc1nc(N)nc(C(C)(C)F)n1)c1ccccc1 (stereo not drawn) [Example 23]
herbicidal activity [2]: 100%
herbicidal activity [3]: 75%

CC(C)(C)c1nc(N)nc(Nc2c(F)cccc2OCc2ccccc2)n1 [Example 33]
herbicidal activity [4]: 75%
herbicidal activity [2]: 60%

CC(C)(F)c1nc(N)nc(Nc2c(F)cccc2OCc2nccs2)n1 [Example 36]
herbicidal activity [1]: 100%
herbicidal activity [2]: 75%

CC1(c2nc(N)nc(Nc3c(F)cccc3OCc3ccccc3)n2)CCC1 [Example 52]
herbicidal activity [2]: 90%
herbicidal activity [3]: 85%

COc1cc(F)cc(COc2cccc(F)c2Nc2nc(N)nc(C(C)(C)F)n2)c1 [Example 54]
herbicidal activity [4]: 90%
herbicidal activity [2]: 100%

CC(C)(F)c1nc(N)nc(Nc2c(F)cccc2OCc2cccc(OC(F)F)c2)n1 [Example 58]
herbicidal activity [1]: 100%
herbicidal activity [2]: 90%
herbicidal activity [3]: 100%

CC(C)C(F)c1nc(N)nc(Nc2c(F)cccc2OCc2ccccc2)n1 (stereo not drawn) [Example 65]
herbicidal activity [4]: 95%
herbicidal activity [2]: 95%

CC(C)(F)c1nc(N)nc(Nc2c(F)ccc(F)c2OCc2ccccc2)n1 [Example 72]
herbicidal activity [1]: 100%
herbicidal activity [2]: 100%
herbicidal activity [3]: 100%

COc1c(F)cc(COc2cccc(F)c2Nc2nc(N)nc(C(C)(C)F)n2)cc1F [Example 73]
herbicidal activity [1]: 70%
herbicidal activity [2]: 75%

CC(C)(F)c1nc(N)nc(Nc2c(F)cccc2OCc2cc(F)cc(F)c2F)n1 [Example 74]
herbicidal activity [1]: 80%
herbicidal activity [2]: 85%

CC(C)(F)c1nc(N)nc(Nc2c(OCc3cccc(F)c3)cc(F)c(F)c2F)n1 [Example 97]
herbicidal activity [1]: 100%
herbicidal activity [2]: 100%
herbicidal activity [3]: 100%

CC(C)(F)c1nc(N)nc(Nc2c(F)cccc2OCc2csc(Cl)c2)n1 [Example 110]
herbicidal activity [2]: 90%
herbicidal activity [3]: 80%

COC(C)(C)c1nc(N)nc(Nc2c(F)cccc2OCc2cccc(F)c2)n1 [Example 114]
herbicidal activity [2]: 90%
herbicidal activity [3]: 90%

CC(C)(F)c1nc(N)nc(Nc2c(OC(F)(F)c3ccccc3)cc(F)c(F)c2F)n1 [Example 116]
herbicidal activity [1]: 100%
herbicidal activity [2]: 100%
herbicidal activity [3]: 100%

COC(C)(C)c1nc(N)nc(Nc2c(F)cccc2OC(F)(F)c2ccccc2)n1 [Example 117]
herbicidal activity [1]: 100%
herbicidal activity [2]: 100%
herbicidal activity [3]: 100%

CC(C)(F)c1nc(N)nc(Nc2c(OC(F)(F)c3cccc(F)c3)cc(F)c(F)c2F)n1 [Example 129]
herbicidal activity [1]: 100%
herbicidal activity [2]: 100%
herbicidal activity [3]: 100%

CC(C)Oc1cccc(COc2cccc(F)c2Nc2nc(N)nc(C(C)(C)F)n2)c1 [Example 132]
herbicidal activity [1]: 90%
herbicidal activity [2]: 100%
herbicidal activity [3]: 90%

COC(C)(C)c1nc(N)nc(Nc2c(F)ccc(F)c2OCc2ccccc2)n1 [Example 135]
herbicidal activity [1]: 100%
herbicidal activity [2]: 100%
herbicidal activity [3]: 100%

CCc1ccc(COc2c(F)ccc(F)c2Nc2nc(N)nc(C(C)(C)F)n2)cc1 [Example 140]
herbicidal activity [2]: 98%
herbicidal activity [3]: 100%

CC(C)(F)c1nc(N)nc(Nc2c(F)ccc(F)c2OC(F)(F)c2ccccc2)n1 [Example 142]
herbicidal activity [1]: 100%
herbicidal activity [2]: 100%
herbicidal activity [3]: 100%

CC(C)(F)c1nc(N)nc(Nc2c(F)ccc(Cl)c2OCc2ccccc2)n1 [Example 148]
herbicidal activity [1]: 100%
herbicidal activity [2]: 100%
herbicidal activity [3]: 100%

CC(C)=C(F)c1nc(N)nc(Nc2c(F)cccc2OCc2ccccc2)n1 [Example 152]
herbicidal activity [1]: 100%
herbicidal activity [3]: 90%

CC(C)(F)c1nc(N)nc(Nc2c(F)cccc2OCc2cccs2)n1 [Example 154]
herbicidal activity [1]: 100%
herbicidal activity [2]: 100%
herbicidal activity [3]: 100%

CC(F)c1nc(N)nc(Nc2c(F)cccc2OCc2ccccc2)n1 (stereo not drawn) [Example 161]
herbicidal activity [2]: 100%
herbicidal activity [3]: 100%

CCCC(F)c1nc(N)nc(Nc2c(OCc3ccccc3)cc(F)c(F)c2F)n1 (stereo not drawn) [Example 169]
herbicidal activity [1]: 80%
herbicidal activity [3]: 85%

CCCC(F)c1nc(N)nc(Nc2c(F)ccc(F)c2OCc2ccccc2)n1 (stereo not drawn) [Example 170]
herbicidal activity [1]: 90%
herbicidal activity [2]: 100%
herbicidal activity [3]: 90%

CC(F)c1nc(N)nc(Nc2c(F)cccc2OC(F)(F)c2ccccc2)n1 (stereo not drawn) [Example 171]
herbicidal activity [1]: 100%
herbicidal activity [2]: 85%
herbicidal activity [3]: 100%

CC(C)(F)c1nc(N)nc(Nc2c(OCc3c(F)cccc3Cl)ccc(F)c2F)n1 [Example 176]
herbicidal activity [1]: 80%
herbicidal activity [2]: 100%
herbicidal activity [3]: 100%

COc1ccc(COc2ccc(F)c(F)c2Nc2nc(N)nc(C(C)(C)F)n2)cc1 [Example 186]
herbicidal activity [4]: 85%
herbicidal activity [2]: 98%

COC(C)c1nc(N)nc(Nc2c(F)ccc(F)c2OCc2ccccc2)n1 (stereo not drawn) [Example 191]
herbicidal activity [1]: 95%
herbicidal activity [2]: 100%
herbicidal activity [3]: 100%

COc1ccc(COc2c(F)ccc(F)c2Nc2nc(N)nc(C(C)(C)F)n2)cc1 [Example 192]
herbicidal activity [2]: 100%
herbicidal activity [3]: 100%

CC(C)c1nc(N)nc(Nc2c(F)cccc2OCc2ccccc2)n1 [Example 194]
herbicidal activity [2]: 100%
herbicidal activity [3]: 70%

CC(F)c1nc(N)nc(Nc2c(F)c(F)cc(F)c2OCc2ccccc2)n1 (stereo not drawn) [Example 209]
herbicidal activity [1]: 100%
herbicidal activity [2]: 100%
herbicidal activity [3]: 100%

COc1ccccc1COc1c(F)cc(F)c(F)c1Nc1nc(N)nc(C(C)F)n1 (stereo not drawn) [Example 210]
herbicidal activity [1]: 100%
herbicidal activity [2]: 100%
herbicidal activity [3]: 100%

COc1cccc(COc2c(F)cc(F)c(F)c2Nc2nc(N)nc(C(C)F)n2)c1 (stereo not drawn) [Example 211]
herbicidal activity [1]: 100%
herbicidal activity [2]: 100%
herbicidal activity [3]: 100%

COc1ccc(COc2c(F)cc(F)c(F)c2Nc2nc(N)nc(C(C)F)n2)cc1 (stereo not drawn) [Example 212]
herbicidal activity [1]: 100%
herbicidal activity [2]: 100%
herbicidal activity [3]: 100%

COC(C)(C)c1nc(N)nc(Nc2c(F)c(F)cc(F)c2OCc2ccccc2)n1 [Example 213]
herbicidal activity [1]: 100%
herbicidal activity [2]: 100%
herbicidal activity [3]: 100%

COc1cccc(COc2c(F)cc(F)c(F)c2Nc2nc(N)nc(C(C)(C)OC)n2)c1 [Example 215]
herbicidal activity [1]: 100%
herbicidal activity [2]: 98%
herbicidal activity [3]: 98%

Cc1cccc(COc2c(F)cc(F)c(F)c2Nc2nc(N)nc(C(C)F)n2)c1 (stereo not drawn) [Example 230]
herbicidal activity [1]: 95%
herbicidal activity [2]: 95%
herbicidal activity [3]: 95%

CC(C)(F)c1nc(N)nc(Nc2c(F)c(Br)cc(Br)c2OCc2ccccc2)n1 [Example 235]
herbicidal activity [1]: 85%
herbicidal activity [2]: 90%
herbicidal activity [3]: 100%

COC(C)c1nc(N)nc(Nc2c(F)c(F)cc(F)c2OCc2ccccc2C)n1 (stereo not drawn) [Example 237]
herbicidal activity [1]: 95%
herbicidal activity [2]: 100%
herbicidal activity [3]: 95%

COC(C)c1nc(N)nc(Nc2c(F)c(F)cc(F)c2OCc2cccc(C)c2)n1 (stereo not drawn) [Example 238]
herbicidal activity [1]: 80%
herbicidal activity [2]: 98%
herbicidal activity [3]: 100%

COC(C)c1nc(N)nc(Nc2c(F)c(F)cc(F)c2OCc2ccccc2F)n1 (stereo not drawn) [Example 240]
herbicidal activity [1]: 100%
herbicidal activity [2]: 90%
herbicidal activity [3]: 95%

COC(C)c1nc(N)nc(Nc2c(F)c(F)cc(F)c2OCc2cccc(F)c2)n1 (stereo not drawn) [Example 241]
herbicidal activity [1]: 100%
herbicidal activity [2]: 85%
herbicidal activity [3]: 85%

CCC(C)(F)c1nc(N)nc(Nc2c(F)c(F)cc(F)c2OCc2ccccc2)n1 (stereo not drawn) [Example 247]
herbicidal activity [1]: 100%
herbicidal activity [2]: 100%
herbicidal activity [3]: 100%

Nc1nc(Nc2c(F)c(F)cc(F)c2OCc2ccccc2)nc(C2(F)CCCCC2)n1 [Example 256]
herbicidal activity [1]: 100%
herbicidal activity [2]: 100%
herbicidal activity [3]: 100%

CC(C)(F)c1nc(N)nc(Nc2c(F)ccc(C#N)c2OCc2ccccc2)n1 [Example 259]
herbicidal activity [1]: 100%
herbicidal activity [3]: 100%

From patent publication US11992012B2, “Diaminotriazine compounds” (BASF SE, priority 2018, dated 2024)
